PMC6478789, “A chemical toolbox for the study of bromodomains and epigenetic signaling” (Nature Communications, 2019)
Read-outs that look alike come from different tables or passages of the source.

Experiments:
[1] = target: BRPF1 (Homo sapiens, UniProt P55201); experiment: Temperature shift assay (non-BRD reader domains); assay type: binding; conditions: 10µM compound
[2] = target: T1, ATAD2B (Homo sapiens, UniProt Q9ULI0); experiment: BROMOscan ligand-binding assay
T1 sequence (Q9ULI0 951-1066 limits assumed): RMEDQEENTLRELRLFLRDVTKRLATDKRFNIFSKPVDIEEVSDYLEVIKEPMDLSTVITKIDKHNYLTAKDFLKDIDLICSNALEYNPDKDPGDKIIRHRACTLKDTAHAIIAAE
Description: (§1) BROMOscan is a binding assay based on the well-known KINOMEscan technology. This assay measures the binding of a DNA-tagged bromodomain to an immobilized BRD ligand. If an inhibitor is present, it will compete with the bromodomain binding to the immobilized ligand, resulting in reduction of a quantitative PCR (qPCR) signal in a dose-dependent manner.

[3] = target: T2, BAZ2A (Homo sapiens, UniProt Q9UIF9); experiment: BROMOscan ligand-binding assay
T2 sequence (Q9UIF9 1793-1897 limits assumed): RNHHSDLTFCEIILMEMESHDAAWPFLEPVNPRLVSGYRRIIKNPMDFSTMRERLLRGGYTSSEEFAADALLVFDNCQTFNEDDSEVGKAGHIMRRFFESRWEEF
Description: as §1

[4] = target: BRD2(1) (Homo sapiens, UniProt P25440); experiment: BROMOscan ligand-binding assay
Description: as §1

[5] = target: BRD2(2) (Homo sapiens, UniProt P25440); experiment: BROMOscan ligand-binding assay
Description: as §1

[6] = target: BRD3(1) (Homo sapiens, UniProt Q15059); experiment: BROMOscan ligand-binding assay
Description: as §1

[7] = target: BRD4(2) (Homo sapiens, UniProt O60885); experiment: BROMOscan ligand-binding assay
Description: as §1

[8] = target: T3, EP300 (Homo sapiens, UniProt Q09472); experiment: BROMOscan ligand-binding assay
T3 sequence (Q09472 1049-1156 limits assumed): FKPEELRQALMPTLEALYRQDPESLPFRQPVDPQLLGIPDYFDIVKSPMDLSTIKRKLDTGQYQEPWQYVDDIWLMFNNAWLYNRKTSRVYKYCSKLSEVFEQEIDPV
Description: as §1

[9] = target: FALZ (Homo sapiens, UniProt Q12830); experiment: BROMOscan ligand-binding assay
Description: as §1

[10] = target: PBRM1(2) (Homo sapiens, UniProt Q86U86); experiment: BROMOscan ligand-binding assay
Description: as §1

[11] = target: T4, TAF1(2) (Homo sapiens, UniProt P21675); experiment: BROMOscan ligand-binding assay
T4 sequence (P21675 1519-1628 limits assumed): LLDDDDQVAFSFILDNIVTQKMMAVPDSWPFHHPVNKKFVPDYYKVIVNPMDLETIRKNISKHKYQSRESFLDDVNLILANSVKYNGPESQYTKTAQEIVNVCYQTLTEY
Description: as §1

[12] = target: T5, TRIM33(PHD,BRD) (Homo sapiens, UniProt Q9UPN9); experiment: BROMOscan ligand-binding assay
T5 sequence (Q9UPN9 882-1087 limits assumed): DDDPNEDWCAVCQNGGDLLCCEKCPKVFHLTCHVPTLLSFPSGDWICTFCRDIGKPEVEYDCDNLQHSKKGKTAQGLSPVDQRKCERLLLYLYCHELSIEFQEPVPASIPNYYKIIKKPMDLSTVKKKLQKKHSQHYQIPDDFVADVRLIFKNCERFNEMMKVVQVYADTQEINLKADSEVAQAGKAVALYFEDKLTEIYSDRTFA
Description: as §1

[13] = target: WDR9(2) (Homo sapiens, UniProt Q9NSI6); experiment: BROMOscan ligand-binding assay
Description: as §1

[14] = target: BRD2(1,2) (Homo sapiens, UniProt P25440); experiment: BROMOscan ligand-binding assay
Description: as §1

[15] = target: BRD3(1,2) (Homo sapiens, UniProt Q15059); experiment: BROMOscan ligand-binding assay
Description: as §1

[16] = target: BRD4(1,2) (Homo sapiens, UniProt O60885); experiment: BROMOscan ligand-binding assay
Description: as §1

[17] = target: CECR2 (Homo sapiens, UniProt Q9BXF3); experiment: BROMOscan ligand-binding assay
Description: as §1

[18] = target: T6, GCN5L2 (Homo sapiens, UniProt Q92830); experiment: BROMOscan ligand-binding assay
T6 sequence (Q92830 728-832 limits assumed): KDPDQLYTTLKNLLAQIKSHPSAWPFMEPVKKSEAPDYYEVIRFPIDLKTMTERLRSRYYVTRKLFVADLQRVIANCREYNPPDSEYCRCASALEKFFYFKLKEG
Description: as §1

[19] = target: PBRM1(5) (Homo sapiens, UniProt Q86U86); experiment: BROMOscan ligand-binding assay
Description: as §1

[20] = target: T7, PCAF (Homo sapiens, UniProt Q92831); experiment: BROMOscan ligand-binding assay
T7 sequence (Q92831 723-827 limits assumed): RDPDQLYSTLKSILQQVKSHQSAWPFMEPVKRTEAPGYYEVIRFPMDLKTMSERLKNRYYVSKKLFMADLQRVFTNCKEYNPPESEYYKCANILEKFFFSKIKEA
Description: as §1

[21] = target: SMARCA2 (Homo sapiens, UniProt P51531); experiment: BROMOscan ligand-binding assay
Description: as §1

[22] = read-out: KD (BROMOscan), sheet prints no unit (nM)
[23] = KD (BROMOscan), sheet prints no unit (nM)

BRD2(2), sequence (P25440 344-453 limits assumed): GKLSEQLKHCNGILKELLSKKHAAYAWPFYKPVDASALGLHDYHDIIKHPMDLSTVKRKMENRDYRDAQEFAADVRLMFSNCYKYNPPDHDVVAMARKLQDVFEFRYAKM
SMARCA2, sequence (P51531 1-1572 isoform P51531-2): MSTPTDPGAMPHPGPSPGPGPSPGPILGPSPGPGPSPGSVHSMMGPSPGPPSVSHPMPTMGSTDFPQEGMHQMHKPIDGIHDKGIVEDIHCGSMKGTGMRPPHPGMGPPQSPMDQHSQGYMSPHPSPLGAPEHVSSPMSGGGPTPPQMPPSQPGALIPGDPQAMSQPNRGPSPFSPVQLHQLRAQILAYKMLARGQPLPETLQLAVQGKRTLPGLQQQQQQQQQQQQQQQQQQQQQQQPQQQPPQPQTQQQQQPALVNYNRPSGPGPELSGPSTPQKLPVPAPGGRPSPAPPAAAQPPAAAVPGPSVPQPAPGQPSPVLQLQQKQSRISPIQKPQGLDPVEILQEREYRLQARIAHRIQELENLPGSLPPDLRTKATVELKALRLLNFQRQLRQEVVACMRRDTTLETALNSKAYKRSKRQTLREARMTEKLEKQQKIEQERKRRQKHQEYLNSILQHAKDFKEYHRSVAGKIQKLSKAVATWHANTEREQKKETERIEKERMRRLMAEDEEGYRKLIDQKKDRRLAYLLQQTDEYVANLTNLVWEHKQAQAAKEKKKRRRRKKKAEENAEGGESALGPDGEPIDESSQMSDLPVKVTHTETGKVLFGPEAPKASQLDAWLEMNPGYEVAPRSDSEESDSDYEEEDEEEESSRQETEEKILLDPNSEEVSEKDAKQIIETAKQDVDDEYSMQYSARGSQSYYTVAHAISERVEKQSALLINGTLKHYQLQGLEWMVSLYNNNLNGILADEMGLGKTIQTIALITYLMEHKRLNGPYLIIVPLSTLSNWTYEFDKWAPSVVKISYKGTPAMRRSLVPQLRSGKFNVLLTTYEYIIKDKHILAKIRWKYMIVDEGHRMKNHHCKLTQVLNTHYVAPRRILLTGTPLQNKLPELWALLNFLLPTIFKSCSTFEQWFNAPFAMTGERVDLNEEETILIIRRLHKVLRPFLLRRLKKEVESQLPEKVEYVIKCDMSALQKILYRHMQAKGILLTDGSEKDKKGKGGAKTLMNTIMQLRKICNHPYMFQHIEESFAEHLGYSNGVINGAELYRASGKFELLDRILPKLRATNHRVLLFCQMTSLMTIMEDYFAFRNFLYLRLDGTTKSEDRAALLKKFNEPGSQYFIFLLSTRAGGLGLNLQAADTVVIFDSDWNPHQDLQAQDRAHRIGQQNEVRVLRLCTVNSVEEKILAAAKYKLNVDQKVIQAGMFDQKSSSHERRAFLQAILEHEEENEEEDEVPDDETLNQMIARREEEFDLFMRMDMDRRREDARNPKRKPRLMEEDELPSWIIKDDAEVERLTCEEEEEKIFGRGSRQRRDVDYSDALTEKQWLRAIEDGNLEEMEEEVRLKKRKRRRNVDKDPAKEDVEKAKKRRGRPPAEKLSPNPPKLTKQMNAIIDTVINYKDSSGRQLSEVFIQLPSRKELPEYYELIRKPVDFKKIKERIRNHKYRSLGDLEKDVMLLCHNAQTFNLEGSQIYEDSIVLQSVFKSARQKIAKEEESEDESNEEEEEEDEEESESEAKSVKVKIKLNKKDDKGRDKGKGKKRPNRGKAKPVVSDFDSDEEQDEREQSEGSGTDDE
WDR9(2), sequence (Q9NSI6 1313-1418 limits assumed): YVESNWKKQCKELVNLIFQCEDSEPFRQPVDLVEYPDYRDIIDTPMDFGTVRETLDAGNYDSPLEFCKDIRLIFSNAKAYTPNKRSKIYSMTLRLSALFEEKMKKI
PBRM1(2), sequence (Q86U86 177-287 limits assumed): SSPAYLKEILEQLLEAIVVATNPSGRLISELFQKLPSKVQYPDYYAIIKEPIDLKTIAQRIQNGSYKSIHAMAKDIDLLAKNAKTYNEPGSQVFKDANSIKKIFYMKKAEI
BRD2(1), sequence (P25440 74-180 limits assumed): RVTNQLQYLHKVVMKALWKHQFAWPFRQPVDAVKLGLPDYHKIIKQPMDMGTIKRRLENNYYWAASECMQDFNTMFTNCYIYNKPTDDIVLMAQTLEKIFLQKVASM
PBRM1(5), sequence (Q86U86 653-763 limits assumed): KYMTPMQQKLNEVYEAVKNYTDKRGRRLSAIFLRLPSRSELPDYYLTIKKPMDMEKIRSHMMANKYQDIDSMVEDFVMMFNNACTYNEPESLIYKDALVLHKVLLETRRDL
BRD3(1), sequence (Q15059 34-140 limits assumed): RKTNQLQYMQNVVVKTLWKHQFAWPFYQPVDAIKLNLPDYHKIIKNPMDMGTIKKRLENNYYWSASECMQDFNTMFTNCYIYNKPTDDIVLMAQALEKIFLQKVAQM
BRD3(1,2), sequence (Q15059 24-416 limits assumed): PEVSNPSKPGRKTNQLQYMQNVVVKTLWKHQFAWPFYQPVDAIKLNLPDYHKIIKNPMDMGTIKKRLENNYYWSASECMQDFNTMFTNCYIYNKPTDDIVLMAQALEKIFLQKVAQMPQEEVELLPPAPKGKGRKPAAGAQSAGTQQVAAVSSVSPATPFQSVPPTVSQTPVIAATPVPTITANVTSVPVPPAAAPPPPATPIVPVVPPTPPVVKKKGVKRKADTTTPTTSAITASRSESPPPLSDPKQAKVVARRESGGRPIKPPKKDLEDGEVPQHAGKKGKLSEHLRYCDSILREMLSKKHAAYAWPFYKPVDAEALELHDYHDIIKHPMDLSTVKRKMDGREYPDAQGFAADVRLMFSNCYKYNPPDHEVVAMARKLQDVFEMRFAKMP
CECR2, sequence (Q9BXF3 434-538 limits assumed): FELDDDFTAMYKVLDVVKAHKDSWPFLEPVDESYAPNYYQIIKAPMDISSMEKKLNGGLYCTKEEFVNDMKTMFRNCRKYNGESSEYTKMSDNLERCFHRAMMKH
BRD2(1,2), sequence (P25440 71-455 limits assumed): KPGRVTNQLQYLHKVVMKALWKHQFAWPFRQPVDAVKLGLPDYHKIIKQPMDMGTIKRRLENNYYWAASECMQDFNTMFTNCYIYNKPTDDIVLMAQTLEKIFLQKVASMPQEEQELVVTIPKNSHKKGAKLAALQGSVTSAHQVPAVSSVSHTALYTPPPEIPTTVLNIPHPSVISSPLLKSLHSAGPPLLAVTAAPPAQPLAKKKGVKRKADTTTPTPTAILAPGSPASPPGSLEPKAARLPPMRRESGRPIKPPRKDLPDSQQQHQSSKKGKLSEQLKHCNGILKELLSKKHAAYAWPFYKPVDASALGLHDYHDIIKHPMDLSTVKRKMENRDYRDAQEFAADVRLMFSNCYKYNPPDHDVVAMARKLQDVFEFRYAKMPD
BRPF1, sequence (P55201 1085-1168 limits assumed, species assumed): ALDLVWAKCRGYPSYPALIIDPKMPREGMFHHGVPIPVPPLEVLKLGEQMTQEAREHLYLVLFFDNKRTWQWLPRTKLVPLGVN

## Cc1cc2c(cc1N1C(=O)c3cccc4c(CCCO)ccc(c34)C1=O)n(C)c(=O)n2C [BAY-299]
[1]
  Tm (C) 10µM, temperature shift: -2.5 Kelvin

## Cc1noc(C)c1-c1ccc2c(c1)nc(CCc1ccccc1)n2CCN1CCOCC1 [CBP30-298]
[2]; BROMOscan Gene Symbol ATAD2B
  Kd: > 50000 nM
[2]; [22]
  Kd: > 30000 nM
[3]; BROMOscan Gene Symbol BAZ2A
  Kd: 55 µM
[4]; BROMOscan Gene Symbol BRD2(1)
  Kd: 0.78 µM
[5]; BROMOscan Gene Symbol BRD2(2)
  Kd: 1.8 µM
[6]; BROMOscan Gene Symbol BRD3(1)
  Kd: 0.96 µM
[7]; BROMOscan Gene Symbol BRD4(2)
  Kd: 2.7 µM
[8]; BROMOscan Gene Symbol EP300
  Kd: 0.092 µM
[9]; BROMOscan Gene Symbol FALZ
  Kd: > 50000 nM
[9]; [22]
  Kd: > 30000 nM
[10]; BROMOscan Gene Symbol PBRM1(2)
  Kd: 42000 nM
[11]; BROMOscan Gene Symbol TAF1(2)
  Kd: 5.8 µM
[12]; BROMOscan Gene Symbol TRIM33(PHD,Bromo.)
  Kd: > 50000 nM
[12]; [22]
  Kd: > 30000 nM
[13]; BROMOscan Gene Symbol WDR9(2)
  Kd: 30000 nM

## CCCOc1ccn2c(C(C)=O)cc(-c3ccccc3S(C)(=O)=O)c2c1 [GSK2801]
[2]; [23]
  Kd: > 30000 nM
[2]; KD, BROMOscan Gene Symbol ATAD2B
  Kd: > 100000 nM
[4]
  Kd: 41 µM
[14]
  Kd: 19 µM
[5]
  Kd: 22 µM
[6]; KD, BROMOscan Gene Symbol BRD3(1)
  Kd: 34 µM
[15]; KD, BROMOscan Gene Symbol BRD3(1,2)
  Kd: 17 µM
[16]
  Kd: 65 µM
[7]
  Kd: 29 µM
[17]; KD, BROMOscan Gene Symbol CECR2
  Kd: 9 µM
[8]; KD, BROMOscan Gene Symbol EP300
  Kd: 70 µM
[9]; KD, BROMOscan Gene Symbol FALZ
  Kd: 95000 nM
[18]; [23]
  Kd: > 30000 nM
[18]; KD, BROMOscan Gene Symbol GCN5L2
  Kd: > 100000 nM
[10]; [23]
  Kd: > 30000 nM
[10]; KD, BROMOscan Gene Symbol PBRM1(2)
  Kd: > 100000 nM
[19]; [23]
  Kd: > 30000 nM
[19]; KD, BROMOscan Gene Symbol PBRM1(5)
  Kd: > 100000 nM
[20]; [23]
  Kd: > 30000 nM
[20]; KD, BROMOscan Gene Symbol PCAF
  Kd: > 100000 nM
[21]; [23]
  Kd: > 30000 nM
[21]; KD, BROMOscan Gene Symbol SMARCA2
  Kd: > 100000 nM
[11]
  Kd: 1.4 µM
[12]; [23]
  Kd: > 30000 nM
[12]; KD, BROMOscan Gene Symbol TRIM33(PHD,Bromo.)
  Kd: > 100000 nM
[13]; [23]
  Kd: > 30000 nM
[13]; KD, BROMOscan Gene Symbol WDR9(2)
  Kd: > 100000 nM

## Cc1cc(=O)n(C)c2cc(N3C(=O)CC[C@H](NS(=O)(=O)CC(C)C)[C@H]3c3ccc(Cl)cc3)ccc12 [LP-99]
[2]; ATAD2B
  Kd: > 50000 nM
[3]; BAZ2A
  Kd: > 50 µM
[4]; BRD2(1)
  Kd: > 50 µM
[14]; BROMOscan, BRD2(1,2)
  Kd: 35 µM
[5]; BROMOscan, BRD2(2)
  Kd: 9.2 µM
[6]; BROMOscan, BRD3(1)
  Kd: 44 µM
[15]; BROMOscan, BRD3(1,2)
  Kd: 47 µM
[16]; BROMOscan, BRD4(1,2)
  Kd: 41 µM
[7]; BROMOscan, BRD4(2)
  Kd: 25 µM
[17]; BROMOscan, CECR2
  Kd: > 50 µM
[8]; BROMOscan, EP300
  Kd: > 50 µM
[9]; BROMOscan, FALZ
  Kd: > 50000 nM
[18]; BROMOscan, GCN5L2
  Kd: > 50000 nM
[10]; BROMOscan, PBRM1(2)
  Kd: > 50000 nM
[19]; BROMOscan, PBRM1(5)
  Kd: > 50000 nM
[20]; BROMOscan, PCAF
  Kd: > 50000 nM
[21]; BROMOscan, SMARCA2
  Kd: > 50000 nM
[11]; BROMOscan, TAF1(2)
  Kd: > 50 µM
[12]; BROMOscan, TRIM33(PHD,Bromo.)
  Kd: > 50000 nM
[13]; BROMOscan, WDR9(2)
  Kd: > 50000 nM
